Measured values reported in patent US20030235851A1, “Methods of using sense and/or nonsense suppression to make nucleic acid-peptide display libraries containing peptides with unnatural amino acid residues” (priority 2002, published 2003).
Peptide text beside a SMILES is read from it. * marks the point of attachment. X1 = CC1(C)S[C@@H]2[C@H](NC(=O)C*)C(=O)N2[C@H]1C(=O)O; Carboxymethyl = O=C(O)C*

Key:
[1] = target: translation complex A site; settings: ribosome; cited from earlier work
[2] = target: T1, PBP2a (Staphylococcus aureus, UniProt P07944); settings: cited from earlier work
[3] = target: Crk N terminal SH3 domain (Homo sapiens, UniProt P46108); settings: substitution for proline at P2 and P−1; cited from earlier work
[4] = target: Grb2 N terminal SH3 domain (Homo sapiens, UniProt P62993); settings: substitution for proline at P2 and P−1; cited from earlier work
[5] = target: T1, PBP2a; experiment: Relative IC50 competition assay of peptide penicillanate conjugates against PBP2a (biotinylated ampicillin); format: binding; design: This part was cleaved off with DTT before the test
Method: Relative IC50 Assay of Peptide Penicillanate Conjugates
Various concentration of conjugates were prepared by dissolving in reaction buffer (50 mM phosphate, pH=8.0; 100 mM NaCl) and incubating with 2 Vg pure PBP2a respectively at 37° C. for 15 min. 20 μg biotinylated ampicillin was added immediately and incubated at 37° C. for 10 min. The reaction was stopped by heating the reaction mixture at 94° C. for 5 min. The samples were loaded into 12% SDS-PAGE for separation, then were transferred to a nitrocellulose membrane by blotting with sodium bicarbonate buffer (20% methanol; 3 mM Na2CO3; 10 mM NaHCO3) at 400 mA for 3 hr. The membrane was blocked with blocking solution (20 mM Tris, pH=8.0; 150 mM NaCl; 0.05% TWEEN-20 detergent; 5% milk) for 1 hr, then incubated with 10 ml TBS buffer (20 mM Tris, pH=8.0; 150 mM NaCl) containing 1 μg/ml streptavidin-HRP protein (Pierce Chemical) at room temperature for 1 hr. The membrane was washed 6 times with 50 ml TBS buffer, at 5 min intervals, and covered with FEMTO-WESTERN blotting reagent (Pierce Chemical). The membrane was then examined under a digital camera at dark to collect chemiluminescent emission for 10-15 min.

[6] = target: penicillin-binding protein 2a (PBP2a) (Staphylococcus aureus (MRSA)) (UniProt P07944); experiment: relative IC50: competition with biotinylated ampicillin for labelling of pure PBP2a, streptavidin-HRP blot
[7] = target: penicillin-binding protein 2a (PBP2a) (Staphylococcus aureus (MRSA)) (UniProt P07944); experiment: ratio of relative IC50 values against the 6-aminopenicillanic acid reference, biotinylated ampicillin competition on PBP2a
[8] = target: penicillin-binding protein 2a (PBP2a) (Staphylococcus aureus (MRSA)) (UniProt P07944); experiment: relative IC50: conjugate pre-incubated with pure PBP2a 15 min at 37 C, then competition with biotinylated ampicillin, SDS-PAGE and streptavidin-HRP blot

T1 sequence (P07944 whole entry, the tested form may be a part): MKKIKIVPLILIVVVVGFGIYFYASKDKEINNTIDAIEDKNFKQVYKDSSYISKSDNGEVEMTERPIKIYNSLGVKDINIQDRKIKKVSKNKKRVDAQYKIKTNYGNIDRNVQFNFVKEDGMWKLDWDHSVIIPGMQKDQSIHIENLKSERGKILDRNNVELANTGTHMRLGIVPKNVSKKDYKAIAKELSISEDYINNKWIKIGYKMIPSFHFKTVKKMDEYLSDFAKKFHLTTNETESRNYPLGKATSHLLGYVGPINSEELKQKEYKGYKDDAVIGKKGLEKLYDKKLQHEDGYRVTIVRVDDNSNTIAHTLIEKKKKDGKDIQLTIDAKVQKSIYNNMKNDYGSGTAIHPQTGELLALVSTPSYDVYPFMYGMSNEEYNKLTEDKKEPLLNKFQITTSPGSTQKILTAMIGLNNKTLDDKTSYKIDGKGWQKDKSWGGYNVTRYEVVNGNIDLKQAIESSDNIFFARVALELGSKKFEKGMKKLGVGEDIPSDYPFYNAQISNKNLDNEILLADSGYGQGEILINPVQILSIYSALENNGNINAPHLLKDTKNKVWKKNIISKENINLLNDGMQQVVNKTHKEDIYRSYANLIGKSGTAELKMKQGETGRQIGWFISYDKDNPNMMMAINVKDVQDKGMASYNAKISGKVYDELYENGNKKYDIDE
penicillin-binding protein 2a (PBP2a) (Staphylococcus aureus (MRSA)), sequence (P07944 23-670): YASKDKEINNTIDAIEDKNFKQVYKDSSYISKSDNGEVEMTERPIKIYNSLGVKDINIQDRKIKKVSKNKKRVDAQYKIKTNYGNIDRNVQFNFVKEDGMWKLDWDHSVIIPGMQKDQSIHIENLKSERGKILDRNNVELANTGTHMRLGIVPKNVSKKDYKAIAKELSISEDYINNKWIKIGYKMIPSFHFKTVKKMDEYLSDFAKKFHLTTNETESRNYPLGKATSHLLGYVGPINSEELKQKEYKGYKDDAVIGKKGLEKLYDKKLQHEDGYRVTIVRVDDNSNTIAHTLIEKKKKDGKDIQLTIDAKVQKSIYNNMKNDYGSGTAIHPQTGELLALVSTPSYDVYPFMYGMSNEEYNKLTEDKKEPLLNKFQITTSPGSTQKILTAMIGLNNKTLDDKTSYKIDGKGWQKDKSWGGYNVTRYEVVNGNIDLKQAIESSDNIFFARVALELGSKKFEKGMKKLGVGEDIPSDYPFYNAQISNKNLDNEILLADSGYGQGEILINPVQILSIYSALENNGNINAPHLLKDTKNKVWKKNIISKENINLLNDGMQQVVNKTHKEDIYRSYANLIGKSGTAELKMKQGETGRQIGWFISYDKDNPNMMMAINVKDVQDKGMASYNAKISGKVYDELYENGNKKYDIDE
Crk N terminal SH3 domain, sequence (P46108 132-192 limits assumed): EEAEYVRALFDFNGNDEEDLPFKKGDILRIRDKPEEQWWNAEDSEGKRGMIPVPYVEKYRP
Grb2 N terminal SH3 domain, sequence (P62993 1-58 limits assumed): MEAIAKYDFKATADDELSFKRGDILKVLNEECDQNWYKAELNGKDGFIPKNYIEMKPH

COc1ccc(C[C@H](N)C(=O)N[C@H]2[C@@H](O)[C@H](n3cnc4c(N(C)C)ncnc43)O[C@@H]2CO)cc1 [puromycin]
Kd [1]: 100 µM

CC1(C)S[C@@H]2[C@H](NC(=O)Cc3ccccc3)C(=O)N2[C@H]1C(=O)O [benzyl penicillin]
rate constant for covalent attachment to PBP2a (k2) [2]: 0.22 s⁻¹

CNCC(=O)O [N-methyl glycine]
change in the binding [3]: little change | change in the binding [4]: little change

CC[C@H](C)[C@H](NC(=O)[C@H](CSCC(=O)O)NC(=O)[C@H](CC(N)=O)NC(=O)[C@H](CO)NC(=O)[C@H](CC(N)=O)NC(=O)[C@H](CCCNC(=N)N)NC(=O)[C@@H](N)CC(C)C)C(=O)N[C@@H](CCCNC(=N)N)C(=O)N[C@@H](Cc1c[nH]cn1)C(=O)N[C@@H](Cc1ccccc1)C(=O)N[C@@H](Cc1ccccc1)C(=O)O [unmodified peptide] (H-LRNSNC(Carboxymethyl)IRHFF-OH)
IC50 [5]: > 35 mM

COc1cccc(OC)c1C(=O)N[C@@H]1C(=O)N2[C@@H]1SC(C)(C)[C@@H]2C(=O)O [methicillin]
rate constant for covalent attachment to PBP2a (k2) [2]: 0.0083 s⁻¹

LRNSNC(COOH)IRHFF (residues 2-12 of SEQ ID NO: 5) (peptide)
IC50 [6]: > 35 mM

LRNSNC(pen)IRHFF (residues 2-12 of SEQ ID NO: 5) (peptide)
fold improvement compared to 6-APA [7]: 100 fold | IC50 [8]: 7 mM

CC[C@H](C)[C@H](NC(=O)[C@H](CSCC(=O)N[C@@H]1C(=O)N2[C@@H]1SC(C)(C)[C@@H]2C(=O)O)NC(=O)[C@H](CC(N)=O)NC(=O)[C@H](CO)NC(=O)[C@H](CC(N)=O)NC(=O)[C@H](CCCNC(=N)N)NC(=O)[C@@H](N)CC(C)C)C(=O)N[C@@H](CCCNC(=N)N)C(=O)N[C@@H](Cc1c[nH]cn1)C(=O)N[C@@H](Cc1ccccc1)C(=O)N[C@@H](Cc1ccccc1)C(=O)O [LRNSNC(pen)IRHFF] (H-LRNSNC(X1)IRHFF-OH; N-terminus and C-terminus assumed)
improvement as compared to 6-APA ([5]; PBP2a inhibition): about 100 fold
